# Data: patent US8299048B2, “Hexahydrocyclopentyl[f]indazole sulfonamides and derivatives thereof as selective glucocorticoid receptor modulators” (Merck Sharp & Dohme Corp., priority 2008, dated 2012)
# pEC50: −log10 of the molar value. Like-named read-outs stand apart in the source and are kept apart here.
# Biological target: T1, human GR (Homo sapiens, UniProt P04150)
# T1 sequence (P04150 1-777): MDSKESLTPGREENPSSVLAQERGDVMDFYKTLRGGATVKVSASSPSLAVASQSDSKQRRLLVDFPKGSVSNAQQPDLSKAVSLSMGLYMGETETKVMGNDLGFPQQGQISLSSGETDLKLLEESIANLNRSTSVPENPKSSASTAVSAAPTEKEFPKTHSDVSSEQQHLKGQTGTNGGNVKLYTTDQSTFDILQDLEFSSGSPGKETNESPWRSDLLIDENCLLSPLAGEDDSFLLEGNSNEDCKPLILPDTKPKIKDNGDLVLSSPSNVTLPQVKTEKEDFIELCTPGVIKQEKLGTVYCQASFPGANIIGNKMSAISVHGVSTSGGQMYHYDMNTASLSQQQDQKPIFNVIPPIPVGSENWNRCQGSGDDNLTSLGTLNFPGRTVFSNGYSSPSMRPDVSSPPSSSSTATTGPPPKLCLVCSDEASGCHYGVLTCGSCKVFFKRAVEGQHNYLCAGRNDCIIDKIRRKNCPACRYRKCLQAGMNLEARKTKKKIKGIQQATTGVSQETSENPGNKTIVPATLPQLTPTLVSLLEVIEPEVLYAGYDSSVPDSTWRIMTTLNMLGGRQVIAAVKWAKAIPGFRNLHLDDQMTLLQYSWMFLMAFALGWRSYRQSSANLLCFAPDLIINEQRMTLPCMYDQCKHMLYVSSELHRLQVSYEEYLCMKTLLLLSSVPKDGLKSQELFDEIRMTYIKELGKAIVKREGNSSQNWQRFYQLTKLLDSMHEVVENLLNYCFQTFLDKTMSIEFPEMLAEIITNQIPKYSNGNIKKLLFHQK
# Assay: Transrepression Assay (GITAR), TNFα-β-lactamase reporter in U937 cells
# Assay type: cell-based
# Set-up: U937 cells contain an endogenous glucocorticoid receptor (GR); endogenous in cells; host or cells: U937 cells stably transfected with the TNF-alpha promoter/beta-lactamase reporter
# Conditions: for pEC50: U937 cells, inflection point, read-out: Transrepression U937 Cells GITAR IP; for GITAR > GRAMM % SEP: GITAR Emax minus GRAMMER Emax
# Procedure, shortened: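 U937 cells stably carrying a TNF-α promoter–β-lactamase reporter, with endogenous GR, are preincubated with compound 30–45 min at 37 °C, then stimulated with PMA (5 ng/ml final) and LPS (100 ng/ml final) overnight (~18 hr). β-Lactamase is read with CCF2-AM substrate; repression by 100 nM dexamethasone defines 100%.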
# [1] = U-937, U937 cells, maximum activity, read-out: Transrepression U937 Cells GITAR Emax
# [2] = U-937, activity repressed by 100 nM dexamethasone alone set as 100%, read-out: maximal activity in the transrepression (GITAR) assay
pEC50,Emax [1] [%],Emax [2] [%],GITAR > GRAMM % SEP [%],SMILES
5.80,37,> 5,–,"C[C@]12Cc3cnn(-c4ccccc4)c3C=C1CC[C@@H]2CN(CCc1ccccn1)S(=O)(=O)Cc1cccnc1 [Example 140, N-{[(4αR,5S)-4α-methyl-1-phenyl-1,4,4α,5,6,7-hexahydrocyclopenta[f]indazol-5-yl]methyl}-1-pyridin-3-yl-N-(2-pyridin-2-ylethyl)methanesulfonamide]"
6.49,75.7,> 5,38.1,"C[C@]12Cc3cnn(-c4ccc(F)cc4)c3C=C1CC[C@@H]2CN(CCc1ccccc1F)S(=O)(=O)Cc1ccc(Cl)c(Cl)c1 [Example 111, 1-(3,4-dichlorophenyl)-N-[2-(2-fluorophenyl)ethyl]-N-{[(4αR,5S)-1-(4-fluorophenyl)-4α-methyl-1,4,4α,5,6,7-hexahydrocyclopenta[f]indazol-5-yl]methyl}methanesulfonamide]"
6.27,73.7,> 5,28.6,"C[C@]12Cc3cnn(-c4ccc(F)cc4)c3C=C1CC[C@@H]2CN(CCO)S(=O)(=O)c1ccccc1C(N)=O [Example 117, 2-{[{[(4αR,5S)-1-(4-fluorophenyl)-4α-methyl-1,4,4α,5,6,7-hexahydrocyclopenta[f]indazol-5-yl]methyl}(2-hydroxyethyl)amino]sulfonyl}benzamide]"
6.85,92.5,> 5,14.4,"C[C@]12Cc3cnn(-c4ccc(F)cc4)c3C=C1CC[C@@H]2CN(CC(O)c1ccccn1)S(=O)(=O)CC(F)(F)F (stereo partly drawn) [Example 142, 2,2,2-trifluoro-N-{[(4αR,5S)-1-(4-fluorophenyl)-4α-methyl-1,4,4α,5,6,7-hexahydrocyclopenta[f]indazol-5-yl]methyl}-N-(2-hydroxy-2-pyridin-2-ylethyl)ethanesulfonamide]"
6.33,73.1,> 5,2.7,"CCCS(=O)(=O)N(CCOC)C[C@H]1CCC2=Cc3c(cnn3-c3ccc(F)cc3)C[C@@]21C [Example 95, N-{[(4αR,5S)-1-(4-fluorophenyl)-4α-methyl-1,4,4α,5,6,7-hexahydrocyclopenta[f]indazol-5-yl]methyl}-N-(2-methoxyethyl)propane-1-sulfonamide]"
6.63,90,> 5,11.7,"COc1cccc(CCN(C[C@H]2CCC3=Cc4c(cnn4-c4ccc(F)cc4)C[C@@]32C)S(=O)(=O)CC(F)(F)F)c1 [Example 126, 2,2,2-trifluoro-N-{[(4αR,5S)-1-(4-fluorophenyl)-4α-methyl-1,4,4α,5,6,7-hexahydrocyclopenta[f]indazol-5-yl]methyl}-N-[2-(3-methoxyphenyl)ethyl]ethanesulfonamide]"
6.61,93.8,> 5,4.7,"C[C@]12Cc3cnn(-c4ccc(F)cc4)c3C=C1CC[C@@H]2CN(CC(OS(=O)(=O)CC(F)(F)F)C(F)F)S(=O)(=O)CC(F)(F)F (stereo partly drawn) [Example 134, 2,2-difluoro-1-({{[(4αR,5S)-1-(4-fluorophenyl)-4α-methyl-1,4,4α,5,6,7-hexahydrocyclopenta[f]indazol-5-yl]methyl}[(2,2,2-trifluoroethyl)sulfonyl]amino}methyl)ethyl 2,2,2-trifluoroethanesulfonate]"
6.65,19.2,> 5,16.2,"C[C@]12Cc3cnn(-c4ccc(F)cc4)c3C=C1CC[C@@H]2CN(CC1CC1)S(=O)(=O)c1cc(C(F)(F)F)ccc1Cl [Example 5, 2-chloro-N-(cyclopropylmethyl)-N-{[(4αR,5S)-1-(4-fluorophenyl)-4α-methyl-1,4,4α,5,6,7-hexahydrocyclopenta[f]indazol-5-yl]methyl}-5-(trifluoromethyl)benzenesulfonamide]"
6.91,85,> 5,19.3,"COCCN(C[C@H]1CCC2=Cc3c(cnn3-c3ccc(F)cc3)C[C@@]21C)S(C)(=O)=O [Example 96, N-{[(4αR,5S)-1-(4-fluorophenyl)-4α-methyl-1,4,4α,5,6,7-hexahydrocyclopenta[f]indazol-5-yl]methyl}-N-(2-methoxyethyl)methanesulfonamide]"
